Laboratory results: patent US20130039998A1, “COMPOSITIONS OF MODULATORS OF THE WNT/BETA-CATENIN PATHWAY AND BENZAMIDE AND/OR HYDROXAMIC ACID DERIVATIVES TO TREAT BIPOLAR DISORDER” (UNIVERSITY OF WASHINGTON, priority 2008, published 2013)
pEC50, pIC50: −log10 of the molar value. “Also recorded” adds a separate entry of the source.

Tests used:
GSK-3 = settings: from Ring et al. 2003 / Cline et al. 2002, cited from earlier work; for pEC50: read-out: half-maximal effective concentration [EC50]
[1] = test system: pfuBARS control reporter (non-functional TCF elements), HEK-293T cells
Text: (§1) To monitor Wnt/β-catenin signalling the beta-catenin activated reporter (BAR) system developed at the laboratory of Randall Moon, University of Washington, Seattle, Wash., was used. The BAR system contains a concatemer of twelve TCF (T-cell factor) response elements separated by unique five nucleotide linkers specifically designed to minimize recombination that can lead to loss of TCF binding sites. This series of TCF response elements is inserted upstream of Promega's minP minimal promoter completing a functional promoter that drives the transcription of firefly luciferase (pBARLS) along with a PGK promoter driving a puromycin selectable maker. These reporters were inserted between the LTRs (long terminal repeats) of a lentiviral transducing plasmid. […] The pfuBARS reporter is identical to their respective parent reporter with the exception that each TCF DNA binding element contains a two-base substitution conferring a non-functional element. The essentially identical nature of the control reporters provides the most optimal experimental control, as well as allowing for identical lentiviral titer production when generated side by side with the responsive reporter.
(§2) Cells were plated, treated, and the luciferase activity measured in a 384-well plate. The volume of culture media in each well prior to measuring luciferase activity was 40 μL. After incubation with compounds, 10 μL of Promega Firefly luciferase reagent was added using a liquid dispenser and incubated for 10 minutes at room temperature. Total luminescence was read on an Envision (Perkin Elmer) plate reader. Data was expressed relative to baseline of adding DMSO alone.

[2] = test system: T1, class I and class II HDACs; experiment: In vitro class I and class II HDAC inhibition; type: biochemical, human; settings: compared with valproate
T1 construct: other: HDAC1/2/3 together; other: compared with valproate
Text: (§3) To measure the effects of compounds on HDAC activity, a homogenous, fluorimetric deacetylase assay miniaturized to 384-well plate format was used. To perform this assay, a buffered solution containing a recombinant human deacetylase was transferred to a microtiter plate using a robotic plate-filler.
(§4) Following compound transfer, a second buffered solution was transferred containing trypsin and a class-specific, tripeptide substrate (AcK-AMC) terminating in an acetyl-lysine, which is amide-coupled to 7-amino-4-methylcoumarin (AMC). Following substrate hydrolysis by the deacetylase, trypsin cleaves the terminal amide bond releasing AMC. With an excitation/emission maximum of 350-380/440-460 nm, AMC fluorescence is captured by a multilabel plate reader. For a kinetic version of the assay, fluorescence measurements was recorded every 0.5-5 minutes over 60 minutes. Data were plotted on a well-by-well basis to measure the slope of increasing fluorescence over time, corresponding to enzymatic activity. HDAC enzymes used were commercially-available (BPS Biosciences San Diego, Calif.).

[3] = test system: Wnt/β-catenin signalling (TCF/LEF transcription), HEK-293T cells; experiment: pBARLS beta-catenin activated reporter (TCF/LEF transcription) in HEK-293T cells; type: cell-based, human; settings: for activation of pBARLS reporter, compound alone (FIG. 3B) / activation of pBARLS reporter in the presence of lithium (FIG. 3B): HEK293T, dose response; for activation of pBARLS reporter in the presence of lithium: 25 μM compound plus lithium 10 mM; for activation of pBAR reporter (FIG. 1B): HEK-293T cells (human)
Text: as §1, §2

[4] = test system: Wnt/β-catenin signalling (TCF/LEF transcription), HT22 cells; experiment: pBARLS beta-catenin activated reporter (TCF/LEF transcription) in HT22 cells; type: cell-based, mouse; settings: for activation of pBARLS reporter in the presence of lithium / activation of transcription of pBARLS reporter, compound alone: HT22, 24 hr; for activation of pBARLS reporter in the presence of lithium: 25 μM compound plus lithium 10 mM; for activation of transcription of pBARLS reporter, compound alone: lithium 10 mM, MS-275, CI-994, SAHA 25 μM; for activation of pBAR reporter (FIG. 1B): HT22 cells (mouse)
Text: as §1, §2

HDAC1 = target: T2, HDAC1 (Homo sapiens, UniProt Q13547); experiment: Fluorimetric deacetylase assay, HDAC1; type: biochemical; settings: Class I; avg n = 2 with class-specific substrates
T2 construct: purchased BPS Biosciences
T2 sequence (Q13547 whole entry): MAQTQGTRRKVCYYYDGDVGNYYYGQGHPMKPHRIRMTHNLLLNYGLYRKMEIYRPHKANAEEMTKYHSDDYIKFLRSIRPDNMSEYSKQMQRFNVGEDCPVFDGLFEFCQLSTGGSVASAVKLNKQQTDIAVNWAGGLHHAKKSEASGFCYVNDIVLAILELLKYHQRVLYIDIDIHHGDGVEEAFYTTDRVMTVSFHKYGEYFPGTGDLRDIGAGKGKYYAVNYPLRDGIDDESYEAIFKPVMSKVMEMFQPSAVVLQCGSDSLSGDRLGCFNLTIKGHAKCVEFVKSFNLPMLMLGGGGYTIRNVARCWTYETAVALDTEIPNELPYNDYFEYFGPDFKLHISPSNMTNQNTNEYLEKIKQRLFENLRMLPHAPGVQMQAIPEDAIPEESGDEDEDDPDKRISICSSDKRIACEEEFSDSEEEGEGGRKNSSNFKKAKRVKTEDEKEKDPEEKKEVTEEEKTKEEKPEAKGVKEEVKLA

HDAC6 = HDAC6 (Homo sapiens, UniProt Q9UBN7); experiment: Fluorimetric deacetylase assay, HDAC6; type: biochemical
Chain of HDAC6 (Q9UBN7 whole entry): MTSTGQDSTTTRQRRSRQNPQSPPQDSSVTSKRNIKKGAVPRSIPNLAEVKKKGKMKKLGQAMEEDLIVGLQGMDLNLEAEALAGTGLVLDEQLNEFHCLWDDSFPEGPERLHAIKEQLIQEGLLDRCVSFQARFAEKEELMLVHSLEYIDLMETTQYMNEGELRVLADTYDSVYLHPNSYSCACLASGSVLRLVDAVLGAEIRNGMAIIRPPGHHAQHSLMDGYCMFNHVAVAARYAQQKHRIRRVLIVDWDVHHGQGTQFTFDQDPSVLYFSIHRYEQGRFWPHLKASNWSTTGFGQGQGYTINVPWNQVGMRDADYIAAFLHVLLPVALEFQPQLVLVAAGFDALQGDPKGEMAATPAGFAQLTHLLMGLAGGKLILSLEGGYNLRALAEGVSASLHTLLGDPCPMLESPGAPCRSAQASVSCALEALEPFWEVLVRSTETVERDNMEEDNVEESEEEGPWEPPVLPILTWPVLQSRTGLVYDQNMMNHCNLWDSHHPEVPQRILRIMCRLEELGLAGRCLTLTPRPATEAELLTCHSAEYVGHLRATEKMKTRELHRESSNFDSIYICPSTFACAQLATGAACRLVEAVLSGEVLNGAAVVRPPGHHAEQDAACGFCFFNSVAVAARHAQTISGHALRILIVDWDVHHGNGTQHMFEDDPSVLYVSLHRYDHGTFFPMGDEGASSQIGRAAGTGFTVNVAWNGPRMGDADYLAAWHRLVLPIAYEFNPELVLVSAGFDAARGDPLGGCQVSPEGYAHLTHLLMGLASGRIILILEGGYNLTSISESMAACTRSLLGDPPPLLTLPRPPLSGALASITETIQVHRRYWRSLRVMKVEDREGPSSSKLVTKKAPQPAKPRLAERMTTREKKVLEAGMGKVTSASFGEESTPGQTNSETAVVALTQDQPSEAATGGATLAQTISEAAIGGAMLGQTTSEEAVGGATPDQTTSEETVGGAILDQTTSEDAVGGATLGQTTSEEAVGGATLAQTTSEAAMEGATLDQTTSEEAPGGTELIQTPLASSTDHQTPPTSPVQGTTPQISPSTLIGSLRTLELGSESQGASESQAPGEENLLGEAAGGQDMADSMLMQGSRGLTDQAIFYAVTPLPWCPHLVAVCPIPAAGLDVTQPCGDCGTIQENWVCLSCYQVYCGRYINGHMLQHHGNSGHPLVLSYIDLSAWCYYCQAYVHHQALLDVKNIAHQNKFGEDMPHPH
Text: as §3, §4

HDAC5 = target: T3, HDAC5 (Homo sapiens, UniProt Q9UQL6); experiment: Fluorimetric deacetylase assay, HDAC5; type: biochemical; settings: Class IIa
T3 construct: purchased BPS Biosciences
T3 sequence (Q9UQL6 whole entry): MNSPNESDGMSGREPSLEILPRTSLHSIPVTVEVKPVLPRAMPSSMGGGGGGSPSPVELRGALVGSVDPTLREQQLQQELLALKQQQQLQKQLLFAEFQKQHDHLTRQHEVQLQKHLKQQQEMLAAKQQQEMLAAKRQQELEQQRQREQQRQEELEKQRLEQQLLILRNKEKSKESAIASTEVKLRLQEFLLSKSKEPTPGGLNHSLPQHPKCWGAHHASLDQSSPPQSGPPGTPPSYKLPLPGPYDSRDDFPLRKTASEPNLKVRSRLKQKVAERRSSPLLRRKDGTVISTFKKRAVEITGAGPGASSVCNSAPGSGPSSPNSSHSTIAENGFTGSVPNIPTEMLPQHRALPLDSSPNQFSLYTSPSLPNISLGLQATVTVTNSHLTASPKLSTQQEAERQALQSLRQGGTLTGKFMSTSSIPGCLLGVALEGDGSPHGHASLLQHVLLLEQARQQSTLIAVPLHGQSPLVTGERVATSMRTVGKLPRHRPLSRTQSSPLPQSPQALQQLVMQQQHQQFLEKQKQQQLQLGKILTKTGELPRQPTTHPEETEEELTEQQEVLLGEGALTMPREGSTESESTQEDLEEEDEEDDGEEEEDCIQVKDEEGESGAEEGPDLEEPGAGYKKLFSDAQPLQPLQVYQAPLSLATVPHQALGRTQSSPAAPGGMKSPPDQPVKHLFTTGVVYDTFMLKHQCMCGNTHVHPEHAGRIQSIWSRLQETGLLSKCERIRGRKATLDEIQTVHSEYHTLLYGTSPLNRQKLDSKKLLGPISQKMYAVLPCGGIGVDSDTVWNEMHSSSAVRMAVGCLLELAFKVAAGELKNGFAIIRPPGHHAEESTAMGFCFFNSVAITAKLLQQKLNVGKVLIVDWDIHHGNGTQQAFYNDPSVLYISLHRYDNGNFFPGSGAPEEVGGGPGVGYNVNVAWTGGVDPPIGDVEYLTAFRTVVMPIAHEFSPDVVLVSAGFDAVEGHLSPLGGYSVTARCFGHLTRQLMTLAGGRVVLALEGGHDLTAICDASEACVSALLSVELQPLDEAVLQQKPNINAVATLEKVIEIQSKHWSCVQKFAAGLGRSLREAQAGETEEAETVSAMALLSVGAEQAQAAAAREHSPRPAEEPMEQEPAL

[5] = listed as Wnt3a conditioned media

## O=[N+]([O-])c1ccc(NCCNc2ncc(-c3ncc[nH]3)c(-c3ccc(Cl)cc3Cl)n2)nc1 [CHIR-837]
GSK-3
  selectivity for GSK-3: > 5,000 fold
  pEC50: 6.43

## CC(=O)Nc1ccc(C(=O)Nc2ccccc2N)cc1 [CI-994]
[1]
  activity in pfuBARS control reporter, compound alone: no activity
  activity in pfuBARS control reporter in the presence of lithium: no activity
[2]
  potency on class I HDACs in comparison to valproate: much more potent

## Nc1ccccc1NC(=O)c1ccc(CNC(=O)OCc2cccnc2)cc1 [MS-275]
[1]
  activity in pfuBARS control reporter, compound alone: no activity
  activity in pfuBARS control reporter in the presence of lithium: no activity
[3]; 24 hr, alone
  activation of pBARLS reporter, compound alone (FIG. 3B): activation on their own
[3]; 24 hr, lithium 10 mM
  activation of pBARLS reporter in the presence of lithium (FIG. 3B): synergistic activation
[3]; HEK-293T, 24 hr
  activation of pBARLS reporter in the presence of lithium: strong synergistic activation of transcription; also recorded: strong synergy
[3]; HEK-293T, 24 hr, lithium 10 mM, MS-275, CI-994, SAHA 25 μM, alone
  activation of transcription of pBARLS reporter, compound alone: activated transcription of the reporter; also recorded: activate transcription on their own
[4]
  activation of pBARLS reporter in the presence of lithium: strong synergistic activation of transcription
  activation of transcription of pBARLS reporter, compound alone: partially capable of activating transcription; also recorded: capable of activating transcription on its own

## O=C(CCCCCCC(=O)Nc1ccccc1)NO [SAHA]
[3]; HEK-293T, 24 hr
  activation of pBARLS reporter in the presence of lithium: strong synergistic activation of transcription; also recorded: strong synergy
[4]
  activation of pBARLS reporter in the presence of lithium: strong synergistic activation of transcription
  activation of transcription of pBARLS reporter, compound alone: unable to activate transcription

## Cc1[nH]c2ccccc2c1CCNCc1ccc(/C=C/C(=O)NO)cc1 [panobinostat]
[3]; 24 hr, alone
  activation of pBARLS reporter, compound alone (FIG. 3B): activation on their own
[3]; 24 hr, lithium 10 mM
  activation of pBARLS reporter in the presence of lithium (FIG. 3B): synergistic activation
[3]; pBARLS reporter dose response
  potency relative to SAHA (dose responses, FIG. 3): more potent than SAHA

## CCCC(CCC)C(=O)O [valproate]
HDAC1
  pIC50: 4.57
HDAC6
  pIC50: < 2.00
HDAC5
  pIC50: < 2.00

## Wnt3a
[3]
  activation of pBAR reporter (FIG. 1B): activation
[3]; [5]
  activation of pBAR reporter (FIG. 1B): capable of responding
[4]
  activation of pBAR reporter (FIG. 1B): activation
[4]; [5]
  activation of pBAR reporter (FIG. 1B): capable of responding
